Data on three compounds can be found in patent US20090012326A1 (priority 2006, published 2009).

Each structure is given as a SMILES string. Entries after “also recorded” stand apart in the source; their conditions may differ.

For data set [1] the following is noted: cited from earlier work.
Data set [2] relates to lung tissue of Wistar rats. The conditions noted are these: rat, in vivo.
Method: (§1) The biochemical and histological studies were carried out with 60 animals, randomly distributed to ten groups. Each animal was individually housed during the experimental period in a polypropylene cage with a stainless steel net at the top and wood chips at the screen bottom. Tap water and rat chow were given ad libitum during the entire experiment. […] Each group was treated as follows: (doses were given per Kg/body weight):
(I) Control group, n=6: animals treated with 0.9% NaCl. Animals were treated with one more administration of 0.9% NaCl two hours later and sacrificed 24 hours after the second injection;
(II) NaSAL group, n=18: animals treated with 0.9% NaCl. Animals were treated with one administration of NaSAL (200 mg/kg) two hours later and sacrificed 24 hours (n=6, NaSAL 24 h group), 48 hours (n=6, NaSAL 48 h group) and 96 hours (n=6, NaSAL 96 h group) after the second injection;
(III) PQ group, n=18: animals intoxicated with PQ (25 mg/kg). Animals were treated with one more administration of 0.9% NaCl two hours later and sacrificed 24 hours (n=6, PQ 24 h group), 48 hours (n=6, PQ 48 h group) and 96 hours (n=6, PQ 96 h group) after the second injection;
(IV) PQ+NaSAL group, n=18: animals intoxicated with PQ (25 mg/kg). Two hours later, animals were treated with NaSAL (200 mg/kg) and sacrificed 24 hours (n=6, PQ+NaSAL 24 h group), 48 hours (n=6, PQ+NaSAL 48 h group) and 96 hours (n=6, PQ+NaSAL 96 h group) after the second injection.
Two animals of each group were assigned to histological analysis. Lung samples were subjected to routine procedures for light microscopy (LM) and transmission electron microscopy (TEM) analysis. With the animals under anaesthesia, lung fixation was initiated in situ by perfusion through pulmonary artery, with 2.5% glutaraldehyde in 0.2 M sodium cacodylate buffer (pH 7.2-7.4) during 3 min. Subsequently, lungs were excised and sectioned into approximately 1 mm^3 cubic pieces. After two washing steps, of 30 minutes each with buffer solution, the specimens were dehydrated in graded alcohol for 2 hours, and then embedded in Epon resin. […]
Data set [3] has as its system Wistar rats intoxicated with PQ.
Method: The study was performed using (n=84) adults male Wistar rats obtained from Charles River S. A. (Barcelona, Spain), with a mean weight of 250±10 g. Animals were randomly distributed in number of two per polypropylene cages with a stainless steel net at the top and wood chips at the screen bottom, in a air-conditioned room (alternate cycles of 12 hours light and darkness, room temperature 22±2° C. and with a relative humidity of 50-60%) at least one week (quarantine) before starting the experience in order to acclimate to their surrounding conditions. Animals were allowed access to tap water and rat chow ad libitum during the quarantine period. Housing and experimental treatment of animals were in accordance with National Institutes of Health guidelines (ILAR 1996). The experiments complied with the current laws of Portugal.
as §1
For the evaluation of survival rate, 24 animals were randomly divided into four groups (control, NaSAL, PQ and PQ+NaSAL) of six animals each. […]

In the case of `CC(=O)Oc1ccccc1C(=O)O` [acetylsalicylic acid], in data set [1] (30 minutes after a dose of 0.65 g), the “share of the total plasma salicylate in the acetylated form” value is given as 27%. The plasma half-life entry in data set [1] (in vivo) is recorded as “about 15 min”.
Take `C[n+]1ccc(-c2cc[n+](C)cc2)cc1.[Cl-].[Cl-]` [paraquat, 1,1′-dimethyl-4,4′-bipyridinium dichloride]: the “lung structure (light and electron micrographs)” value in data set [2] is “a marked vascular congestion and a notorious generalized alveolar collapse; also recorded: areas of necrosis of the alveolar wall and macrophages, cellular debris and inflammatory infiltrate within the alveolar space; also recorded: an intense vascular congestion as well as the presence of cellular debris and phagocytes within the alveolar space”. The lethality in data set [3] (intraperitoneal PQ dose, absence of treatment, at the end of 6 days) was 100%.
In data set [3] (PQ 25 mg/Kg i.p., sodium salicylate 200 mg/Kg i.p. two hours after PQ, 30 days after PQ), `O=C([O-])c1ccccc1O.[Na+]` [sodium salicylate, 2-hydroxybenzoic acid sodium salt] registered a survival of 100%.
